Results as given in ChEMBL document CHEMBL4043168, “The design and SAR of a novel series of 2-aminopyridine based LRRK2 inhibitors” (Bioorg Med Chem Lett, 2017).

Columns and labels:
[1] = molecular target: 5'-AMP-activated protein kinase catalytic subunit alpha-1 (Homo sapiens) (UniProt Q13131); assay: Inhibition of AMPKa1 ATP loop (IGHYILGDTLGVGTFGKVK) in human PBMC at 1 uM; conditions: pooled result: one value given for 5 cell lines, strains, targets or settings
[2] = molecular target: Cyclin-dependent kinase 17 (Homo sapiens) (UniProt Q00537); assay: Inhibition of PCTAIRE2 conserved Lys2 (DLKPQNLLINEK) in human PBMC at 0.1 uM
[3] = molecular target: Serine/threonine-protein kinase 10 (Homo sapiens) (UniProt O94804); assay: Inhibition of LOK conserved Lys2 (DLKAGNVLMTLEGDIR) in human PBMC at 0.1 uM
[4] = molecular target: Phosphatidylinositol 5-phosphate 4-kinase type-2 alpha (Homo sapiens) (UniProt P48426); assay: Inhibition of PIP4K2A ATP binding site (AKELPTLKDNDFINEGQK) in human PBMC at 0.1 uM
[5] = molecular target: 1-phosphatidylinositol 3-phosphate 5-kinase (Homo sapiens) (UniProt Q9Y2I7); assay: Inhibition of PIP5K3 ATP binding site (GGKSGAAFYATEDDRFILK) in human PBMC at 1 uM
[6] = molecular target: Serine/threonine-protein kinase Nek6 (Homo sapiens) (UniProt Q9HC98); assay: Inhibition of NEK6 conserved Lys2 (DIKPANVFITATGVVK) in human PBMC at 0.1 uM
[7] = molecular target: Ribosomal protein S6 kinase alpha-5 (Homo sapiens) (UniProt O75582); assay: Inhibition of MSK1 domain1 conserved Lys2 (DIKLENILLDSNGHVVLTDFGLSK) in human PBMC at 1 uM
[8] = molecular target: Mitogen-activated protein kinase 7 (Homo sapiens) (UniProt Q13164); assay: Inhibition of Erk5 conserved Lys2 (DLKPSNLLVNENCELK) in human PBMC at 1 uM
[9] = molecular target: Serine/threonine-protein kinase 32C (Homo sapiens) (UniProt Q86UX6); assay: Inhibition of YANK3 conserved Lys2 (DVKPDNILLDER) in human PBMC at 1 uM
[10] = molecular target: 5'-AMP-activated protein kinase catalytic subunit alpha-1 (Homo sapiens) (UniProt Q13131); assay: Inhibition of AMPKa1 labeling at conserved Lys1 (VAVKILNR) in human PBMC at 1 uM
[11] = molecular target: Calcium/calmodulin-dependent protein kinase type II subunit alpha (Homo sapiens) (UniProt Q9UQM7); assay: Inhibition of CaMK2a labeling at conserved Lys2 (DLKPENLLLASK) in human PBMC at 0.1 uM
[12] = molecular target: Ribosomal protein S6 kinase alpha-2 (Homo sapiens) (UniProt Q15349); assay: Inhibition of RSK3 domain1 conserved Lys2 (DLKPENILLDEEGHIK) in human PBMC at 0.1 uM
[13] = molecular target: Mitogen-activated protein kinase kinase kinase 2 (Homo sapiens) (UniProt Q9Y2U5); assay: Inhibition of MAP3K2 conserved Lys2 (DIKGANILR) in human PBMC at 1 uM
[14] = molecular target: Cyclin-dependent kinase 2 (Homo sapiens) (UniProt P24941); assay: Inhibition of CDK2 labeling at conserved Lys2 (DLKPQNLLINTEGAIK) in human PBMC at 0.1 uM
[15] = molecular target: T1, Serine/threonine-protein kinase ULK3 (Homo sapiens) (UniProt Q6PHR2); assay: Inhibition of ULK3 conserved Lys2 (NISHLDLKPQNILLSSLEKPHLK) in human PBMC at 1 uM
T1 sequence (whole entry): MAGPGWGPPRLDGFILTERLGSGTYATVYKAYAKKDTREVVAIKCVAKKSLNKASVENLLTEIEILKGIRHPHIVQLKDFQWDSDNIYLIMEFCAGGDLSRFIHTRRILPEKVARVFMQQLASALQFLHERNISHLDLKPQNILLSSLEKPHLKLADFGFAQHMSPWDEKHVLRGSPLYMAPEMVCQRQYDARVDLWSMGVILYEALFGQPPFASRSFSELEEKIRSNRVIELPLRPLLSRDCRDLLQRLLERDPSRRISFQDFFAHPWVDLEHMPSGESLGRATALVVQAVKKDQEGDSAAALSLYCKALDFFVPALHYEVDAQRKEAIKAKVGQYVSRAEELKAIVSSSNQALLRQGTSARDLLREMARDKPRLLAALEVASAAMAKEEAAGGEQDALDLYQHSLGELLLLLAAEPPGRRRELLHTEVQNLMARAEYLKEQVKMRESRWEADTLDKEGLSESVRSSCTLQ

[16] = molecular target: Serine/threonine-protein kinase 25 (Homo sapiens) (UniProt O00506); assay: Inhibition of YSK1 conserved Lys2 (DIKAANVLLSEQGDVK) in human PBMC at 0.1 uM
[17] = molecular target: Serine/threonine-protein kinase Sgk3 (Homo sapiens) (UniProt Q96BR1); assay: Inhibition of SGK3 conserved Lys1 (FYAVKVLQK) in human PBMC at 1 uM
Serine/threonine-protein kinase Sgk3 (Homo sapiens), sequence (Q96BR1 whole entry): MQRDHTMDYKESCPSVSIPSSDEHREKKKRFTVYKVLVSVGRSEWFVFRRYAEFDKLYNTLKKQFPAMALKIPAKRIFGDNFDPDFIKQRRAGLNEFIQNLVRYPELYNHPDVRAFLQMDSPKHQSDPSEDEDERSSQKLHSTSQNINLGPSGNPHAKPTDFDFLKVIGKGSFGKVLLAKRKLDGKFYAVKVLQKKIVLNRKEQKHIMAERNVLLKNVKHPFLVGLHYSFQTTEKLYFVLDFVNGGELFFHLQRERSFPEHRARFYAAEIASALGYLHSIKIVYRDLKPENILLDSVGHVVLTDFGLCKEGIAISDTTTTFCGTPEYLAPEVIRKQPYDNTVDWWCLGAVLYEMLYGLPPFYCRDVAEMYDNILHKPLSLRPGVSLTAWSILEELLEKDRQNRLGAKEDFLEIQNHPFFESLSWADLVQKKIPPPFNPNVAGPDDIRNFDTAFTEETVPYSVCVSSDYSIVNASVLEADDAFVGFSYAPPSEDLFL

5'-AMP-activated protein kinase catalytic subunit alpha-1 (Homo sapiens), sequence (Q13131 whole entry, looked up): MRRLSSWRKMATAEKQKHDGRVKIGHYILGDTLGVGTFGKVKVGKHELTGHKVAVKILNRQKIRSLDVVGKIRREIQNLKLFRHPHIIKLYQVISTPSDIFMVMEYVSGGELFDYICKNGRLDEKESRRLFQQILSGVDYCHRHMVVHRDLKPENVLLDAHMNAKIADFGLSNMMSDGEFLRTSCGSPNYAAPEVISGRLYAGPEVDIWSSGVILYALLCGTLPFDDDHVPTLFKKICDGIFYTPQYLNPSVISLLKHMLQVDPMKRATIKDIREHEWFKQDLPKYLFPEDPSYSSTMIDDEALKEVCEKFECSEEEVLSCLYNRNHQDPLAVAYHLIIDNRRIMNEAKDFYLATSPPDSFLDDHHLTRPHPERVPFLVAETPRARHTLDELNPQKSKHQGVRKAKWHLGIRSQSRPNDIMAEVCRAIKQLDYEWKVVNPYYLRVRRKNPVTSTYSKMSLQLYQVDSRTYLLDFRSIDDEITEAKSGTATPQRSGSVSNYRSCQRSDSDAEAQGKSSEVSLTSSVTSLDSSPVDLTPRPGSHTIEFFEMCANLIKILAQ
1-phosphatidylinositol 3-phosphate 5-kinase (Homo sapiens), sequence (Q9Y2I7 whole entry): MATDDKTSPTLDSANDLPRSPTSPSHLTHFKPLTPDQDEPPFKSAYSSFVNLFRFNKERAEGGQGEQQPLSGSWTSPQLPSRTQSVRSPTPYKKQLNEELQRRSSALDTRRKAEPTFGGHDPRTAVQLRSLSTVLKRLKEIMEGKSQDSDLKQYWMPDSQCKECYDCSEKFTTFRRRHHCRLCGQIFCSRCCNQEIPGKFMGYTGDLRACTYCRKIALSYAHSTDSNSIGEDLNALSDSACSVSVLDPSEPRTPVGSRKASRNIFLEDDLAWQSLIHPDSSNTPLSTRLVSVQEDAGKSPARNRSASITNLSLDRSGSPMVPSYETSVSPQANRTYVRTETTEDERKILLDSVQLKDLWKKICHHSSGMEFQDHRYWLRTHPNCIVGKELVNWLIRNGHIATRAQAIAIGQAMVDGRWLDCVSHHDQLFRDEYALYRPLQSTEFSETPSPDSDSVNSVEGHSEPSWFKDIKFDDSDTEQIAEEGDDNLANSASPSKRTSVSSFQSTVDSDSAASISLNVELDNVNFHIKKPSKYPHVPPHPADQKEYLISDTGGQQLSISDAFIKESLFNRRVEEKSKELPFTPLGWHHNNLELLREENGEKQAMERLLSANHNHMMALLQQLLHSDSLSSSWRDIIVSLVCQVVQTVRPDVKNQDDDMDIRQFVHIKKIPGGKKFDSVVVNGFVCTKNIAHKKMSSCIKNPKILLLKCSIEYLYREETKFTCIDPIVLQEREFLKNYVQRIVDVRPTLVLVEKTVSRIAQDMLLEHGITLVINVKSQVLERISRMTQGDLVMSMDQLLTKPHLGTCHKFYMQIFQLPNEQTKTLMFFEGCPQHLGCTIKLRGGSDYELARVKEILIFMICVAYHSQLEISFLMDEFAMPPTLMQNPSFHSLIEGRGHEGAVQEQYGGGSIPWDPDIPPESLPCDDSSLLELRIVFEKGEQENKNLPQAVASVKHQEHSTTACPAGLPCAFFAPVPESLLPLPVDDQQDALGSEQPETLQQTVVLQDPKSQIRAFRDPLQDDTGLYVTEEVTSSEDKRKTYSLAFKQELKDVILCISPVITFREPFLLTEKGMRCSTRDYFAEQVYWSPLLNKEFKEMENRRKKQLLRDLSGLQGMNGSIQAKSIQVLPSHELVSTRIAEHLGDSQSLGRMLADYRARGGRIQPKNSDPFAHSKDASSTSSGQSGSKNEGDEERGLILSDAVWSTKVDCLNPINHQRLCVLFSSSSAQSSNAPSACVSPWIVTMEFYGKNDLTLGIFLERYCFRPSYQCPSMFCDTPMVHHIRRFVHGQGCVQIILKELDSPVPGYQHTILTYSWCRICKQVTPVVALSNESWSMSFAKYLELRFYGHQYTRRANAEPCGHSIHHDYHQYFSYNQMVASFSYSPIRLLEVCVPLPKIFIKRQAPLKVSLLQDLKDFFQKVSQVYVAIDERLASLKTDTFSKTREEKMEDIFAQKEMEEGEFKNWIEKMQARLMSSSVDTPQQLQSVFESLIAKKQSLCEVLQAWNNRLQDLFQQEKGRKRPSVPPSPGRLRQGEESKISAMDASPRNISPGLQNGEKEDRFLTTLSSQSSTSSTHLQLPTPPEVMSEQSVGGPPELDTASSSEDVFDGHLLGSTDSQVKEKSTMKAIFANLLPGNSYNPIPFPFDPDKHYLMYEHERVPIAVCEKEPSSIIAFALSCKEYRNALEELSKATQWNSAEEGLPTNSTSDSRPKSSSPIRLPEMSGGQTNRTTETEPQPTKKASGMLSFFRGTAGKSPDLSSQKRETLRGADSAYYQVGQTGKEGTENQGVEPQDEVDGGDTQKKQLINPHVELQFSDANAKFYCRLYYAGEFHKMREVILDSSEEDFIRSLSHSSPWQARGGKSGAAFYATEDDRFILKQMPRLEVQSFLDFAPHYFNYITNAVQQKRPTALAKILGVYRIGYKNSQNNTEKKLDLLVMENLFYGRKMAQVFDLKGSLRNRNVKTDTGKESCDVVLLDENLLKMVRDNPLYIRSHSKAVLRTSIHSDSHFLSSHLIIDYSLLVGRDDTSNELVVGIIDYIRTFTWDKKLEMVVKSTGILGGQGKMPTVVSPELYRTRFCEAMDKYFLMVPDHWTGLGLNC
Mitogen-activated protein kinase kinase kinase 2 (Homo sapiens), sequence (Q9Y2U5 whole entry): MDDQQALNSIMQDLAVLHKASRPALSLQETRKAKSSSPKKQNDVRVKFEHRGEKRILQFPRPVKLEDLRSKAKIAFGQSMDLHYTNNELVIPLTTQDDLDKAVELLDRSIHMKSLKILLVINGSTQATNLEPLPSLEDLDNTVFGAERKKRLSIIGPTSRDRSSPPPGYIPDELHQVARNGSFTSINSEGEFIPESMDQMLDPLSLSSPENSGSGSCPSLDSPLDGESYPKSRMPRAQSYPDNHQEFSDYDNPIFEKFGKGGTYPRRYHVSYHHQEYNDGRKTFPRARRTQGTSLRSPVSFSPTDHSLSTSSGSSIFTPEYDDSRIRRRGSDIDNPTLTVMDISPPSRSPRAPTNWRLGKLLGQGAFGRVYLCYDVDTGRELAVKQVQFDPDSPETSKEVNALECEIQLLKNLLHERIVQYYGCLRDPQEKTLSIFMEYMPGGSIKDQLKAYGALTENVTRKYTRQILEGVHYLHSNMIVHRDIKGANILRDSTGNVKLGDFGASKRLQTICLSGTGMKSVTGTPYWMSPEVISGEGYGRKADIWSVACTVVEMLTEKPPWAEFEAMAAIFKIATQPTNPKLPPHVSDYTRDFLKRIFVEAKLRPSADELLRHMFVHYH
Calcium/calmodulin-dependent protein kinase type II subunit alpha (Homo sapiens), sequence (Q9UQM7 whole entry, the tested form may be a part): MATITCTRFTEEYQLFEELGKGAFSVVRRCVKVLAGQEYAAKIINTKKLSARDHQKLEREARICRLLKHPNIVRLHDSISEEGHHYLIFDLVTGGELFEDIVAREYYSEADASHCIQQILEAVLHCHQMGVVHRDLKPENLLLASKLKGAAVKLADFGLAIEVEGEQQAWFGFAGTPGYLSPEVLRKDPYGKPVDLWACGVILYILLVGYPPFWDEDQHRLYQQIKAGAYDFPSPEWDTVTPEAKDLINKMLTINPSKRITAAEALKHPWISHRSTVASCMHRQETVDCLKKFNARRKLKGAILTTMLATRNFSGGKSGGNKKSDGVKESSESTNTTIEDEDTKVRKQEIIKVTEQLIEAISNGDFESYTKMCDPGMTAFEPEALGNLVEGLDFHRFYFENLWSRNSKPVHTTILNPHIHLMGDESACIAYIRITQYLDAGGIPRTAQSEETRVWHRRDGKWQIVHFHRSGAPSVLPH
Serine/threonine-protein kinase 32C (Homo sapiens), sequence (Q86UX6 whole entry): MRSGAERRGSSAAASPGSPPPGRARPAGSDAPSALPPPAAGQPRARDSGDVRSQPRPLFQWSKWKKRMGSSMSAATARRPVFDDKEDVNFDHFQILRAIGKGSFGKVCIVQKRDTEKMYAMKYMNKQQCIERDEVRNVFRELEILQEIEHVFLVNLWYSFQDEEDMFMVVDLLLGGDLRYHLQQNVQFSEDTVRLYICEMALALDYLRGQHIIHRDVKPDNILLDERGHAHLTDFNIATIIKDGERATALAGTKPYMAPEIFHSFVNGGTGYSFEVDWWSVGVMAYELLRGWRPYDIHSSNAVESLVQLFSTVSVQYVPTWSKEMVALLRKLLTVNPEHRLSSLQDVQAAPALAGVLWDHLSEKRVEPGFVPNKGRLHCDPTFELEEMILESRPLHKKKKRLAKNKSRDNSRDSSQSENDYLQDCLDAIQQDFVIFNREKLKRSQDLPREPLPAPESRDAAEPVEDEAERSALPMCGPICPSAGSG
Serine/threonine-protein kinase Nek6 (Homo sapiens), sequence (Q9HC98 whole entry, the tested form may be a part): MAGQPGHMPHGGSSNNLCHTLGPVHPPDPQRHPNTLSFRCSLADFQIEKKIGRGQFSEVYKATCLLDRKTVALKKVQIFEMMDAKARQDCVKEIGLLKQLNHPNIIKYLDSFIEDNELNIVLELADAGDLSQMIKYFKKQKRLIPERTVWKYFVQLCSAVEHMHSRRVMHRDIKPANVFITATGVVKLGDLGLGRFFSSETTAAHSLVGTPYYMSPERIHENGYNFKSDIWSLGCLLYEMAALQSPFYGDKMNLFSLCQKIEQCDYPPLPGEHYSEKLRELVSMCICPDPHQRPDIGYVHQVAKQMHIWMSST

## CC(C)n1cc(-c2cc(-c3ccc(CN4CCOCC4)cc3)cnc2N)nn1
[1]
  inhibition: 13.1%
[2]
  inhibition: 21.7%
[3]
  inhibition: 13.8%
[4]
  inhibition: 10.3%
[5]
  inhibition: -9.2%
[6]
  inhibition: -4.8%
[7]
  inhibition: 9.8%
[8]
  inhibition: 30%
[9]
  inhibition: -2.1%
[10]
  inhibition: 17.3%
[11]
  inhibition: -7.5%
[12]
  inhibition: 11.8%
[13]
  inhibition: 29.2%
[14]
  inhibition: 19.2%
[15]
  inhibition: 40.8%
[16]
  inhibition: 0.5%
[17]
  inhibition: -2.2%
